Experimental data published in PubChem BioAssay AID248 (DTP/NCI, 2004).
Where “and” joins values, the source holds several entries; their conditions need not be identical. Identical values can stand only once. Inconclusive results and toxic doses are left out.

Tested on: L1210 leukemia ip in BDF1 mice, survival T/C
Assay: NCI In Vivo Anticancer Drug Screen. Data for tumor model L1210 Leukemia (intraperitoneal) in B6D2F1 (BDF1) mice
Details: endpoint: mean survival time, higher = longer survival
Outline: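 In this screen, tumor-bearing mice given compound are compared to those given vehicle, and their survival values are reported as a treated-to-control quotient.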

[1] = dose: 100.0 mg/kg/injection, schedule: Q01DX009 (ip), vehicle: saline with Tween-80
[2] = dose: 200.0 mg/kg/injection, schedule: Q01DX009 (ip), vehicle: saline with Tween-80
[3] = dose: 100.0 mg/kg/injection, schedule: Q04DX002 (ip), vehicle: Klucel (hydroxypropylcellulose) (HPC)

CCN(CC)CC(C)Nc1ccc([N+](=O)[O-])c2sc3ccccc3c(=O)c12 (stereo not drawn)
T/C (dose: 9.0 mg/kg/injection, schedule: Q01DX Z (ip), vehicle: carboxymethylcellulose (CMC)): 122 % of control
T/C (dose: 10.0 mg/kg/injection, schedule: Q01DX Z (ip), vehicle: other): 107 % of control
T/C (dose: 12.0 mg/kg/injection, schedule: Q01DX Z (ip), vehicle: methylcellulose (MC)): 108 % of control and 112 % of control
T/C (dose: 17.7 mg/kg/injection, schedule: Q01DX Z (ip), vehicle: carboxymethylcellulose (CMC)): 108 % of control
T/C (dose: 18.0 mg/kg/injection, schedule: Q01DX Z (ip), vehicle: methylcellulose (MC)): 110 % of control and 114 % of control
T/C (dose: 26.0 mg/kg/injection, schedule: Q01DX Z (ip), vehicle: carboxymethylcellulose (CMC)): 122 % of control
T/C (dose: 27.0 mg/kg/injection, schedule: Q01DX Z (ip), vehicle: carboxymethylcellulose (CMC)): 122 % of control
T/C (dose: 40.0 mg/kg/injection, schedule: Q01DX Z (ip), vehicle: carboxymethylcellulose (CMC)): 175 % of control
T/C (dose: 41.0 mg/kg/injection, schedule: Q01DX Z (ip), vehicle: carboxymethylcellulose (CMC)): 169 % of control
T/C (dose: 80.0 mg/kg/injection, schedule: Q01DX Z (ip), vehicle: carboxymethylcellulose (CMC)): 170 % of control
T/C (dose: 90.0 mg/kg/injection, schedule: Q01DX Z (ip), vehicle: other): 171 % of control
T/C (dose: 250.0 mg/kg/injection, schedule: Q## X000 (other), vehicle: carboxymethylcellulose (CMC)): 158 % of control
T/C (dose: 270.0 mg/kg/injection, schedule: Q01DX Z (ip), vehicle: other): 97 % of control

Nc1cccc(S(=O)(=O)N(CCO)CCO)c1
T/C (dose: 100.0 mg/kg/injection, schedule: Q04DX003 (ip), vehicle: saline): 90 % of control
T/C (dose: 200.0 mg/kg/injection, schedule: Q04DX003 (ip), vehicle: saline): 95 % of control
T/C (dose: 400.0 mg/kg/injection, schedule: Q04DX003 (ip), vehicle: saline): 94 % of control

C[C@]12CCC(=O)C=C1CC[C@@H]1[C@@H]2C(=O)C[C@@]2(C)[C@H]1CC[C@]2(O)C(=O)COP(=O)(Nc1ccccc1)Nc1ccccc1
T/C (dose: 50.0 mg/kg/injection, schedule: Q01DX001 (sc), vehicle: steriod suspending solution): 102 % of control
T/C (dose: 100.0 mg/kg/injection, schedule: Q01DX001 (sc), vehicle: steriod suspending solution): 98 % of control
T/C (dose: 200.0 mg/kg/injection, schedule: Q01DX001 (sc), vehicle: steriod suspending solution): 102 % of control
T/C (dose: 400.0 mg/kg/injection, schedule: Q01DX001 (sc), vehicle: steriod suspending solution): 98 % of control

COc1cccc(CC#N)c1
T/C (dose: 12.5 mg/kg/injection, schedule: Q01DX001 (ip), vehicle: saline with Tween-80): 106 % of control
T/C (dose: 25.0 mg/kg/injection, schedule: Q01DX001 (ip), vehicle: saline with Tween-80): 93 % of control
T/C (dose: 50.0 mg/kg/injection, schedule: Q01DX001 (ip), vehicle: saline with Tween-80): 97 % of control

Cc1cc(C)c2ccc(N)nc2n1
T/C (dose: 9.5 mg/kg/injection, schedule: Q01DX001 (ip), vehicle: saline): 86 % of control
T/C (dose: 19.0 mg/kg/injection, schedule: Q01DX001 (ip), vehicle: saline): 91 % of control
T/C (dose: 38.0 mg/kg/injection, schedule: Q01DX001 (ip), vehicle: saline): 101 % of control

CCOC(=O)C(Cc1c[nH]c2ccccc12)(NC(C)=O)C(=O)OCC
T/C [1]: 88 % of control
T/C [2]: 90 % of control
T/C (dose: 400.0 mg/kg/injection, schedule: Q01DX009 (ip), vehicle: saline with Tween-80): 94 % of control

O=C(N=C1SCCS1)Nc1cccc(Cl)c1
T/C [3]: 100 % of control
T/C (dose: 200.0 mg/kg/injection, schedule: Q04DX002 (ip), vehicle: Klucel (hydroxypropylcellulose) (HPC)): 95 % of control
T/C (dose: 400.0 mg/kg/injection, schedule: Q04DX002 (ip), vehicle: Klucel (hydroxypropylcellulose) (HPC)): 110 % of control

COC(=O)c1cc(N)ccc1Br
T/C (dose: 100.0 mg/kg/injection, schedule: Q04DX003 (sc), vehicle: olive oil, sesame oil, peanut oil): 93 % of control
T/C (dose: 200.0 mg/kg/injection, schedule: Q04DX003 (sc), vehicle: olive oil, sesame oil, peanut oil): 111 % of control
T/C (dose: 400.0 mg/kg/injection, schedule: Q04DX003 (sc), vehicle: olive oil, sesame oil, peanut oil): 95 % of control

COc1cccc(C[P+](C/C=C/c2ccccc2)(c2ccccc2)c2ccccc2)c1
T/C (dose: 6.25 mg/kg/injection, schedule: Q04DX003 (ip), vehicle: Klucel (hydroxypropylcellulose) (HPC)): 109 % of control
T/C (dose: 12.5 mg/kg/injection, schedule: Q04DX003 (ip), vehicle: Klucel (hydroxypropylcellulose) (HPC)): 88 % of control
T/C (dose: 25.0 mg/kg/injection, schedule: Q04DX003 (ip), vehicle: Klucel (hydroxypropylcellulose) (HPC)): 97 % of control

COc1cc(/C=N/N)cc(OC)c1OC
T/C (dose: 25.0 mg/kg/injection, schedule: Q04DX002 (ip), vehicle: Klucel (hydroxypropylcellulose) (HPC)): 117 % of control
T/C (dose: 50.0 mg/kg/injection, schedule: Q04DX002 (ip), vehicle: Klucel (hydroxypropylcellulose) (HPC)): 117 % of control
T/C [3]: 98 % of control and 109 % of control

O=C(OCn1ncc2ccc([N+](=O)[O-])cc21)c1ccc(Cl)c(Cl)c1
T/C (dose: 100.0 mg/kg/injection, schedule: Q01DX001 (ip), vehicle: carboxymethylcellulose (CMC)): 101 % of control
T/C (dose: 200.0 mg/kg/injection, schedule: Q01DX001 (ip), vehicle: carboxymethylcellulose (CMC)): 93 % of control
T/C (dose: 400.0 mg/kg/injection, schedule: Q01DX001 (ip), vehicle: carboxymethylcellulose (CMC)): 95 % of control

O=C1C(=O)c2c3ccccc3cc3cccc1c23
T/C (dose: 50.0 mg/kg/injection, schedule: Q01DX009 (ip), vehicle: saline with Tween-80): 88 % of control
T/C [1]: 91 % of control

Cc1ccc(C(O)c2ccccc2)cc1 (stereo not drawn)
T/C [1]: 98 % of control
T/C [2]: 97 % of control

COC(=O)c1ccc(Cl)c(NN)c1
T/C (dose: 100.0 mg/kg/injection, schedule: Q04DX003 (ip), vehicle: saline with Tween-80): 100 % of control
T/C (dose: 200.0 mg/kg/injection, schedule: Q04DX003 (ip), vehicle: saline with Tween-80): 100 % of control
T/C (dose: 400.0 mg/kg/injection, schedule: Q04DX003 (ip), vehicle: saline with Tween-80): 105 % of control

CC(C)CCCCCOC(N)=O
T/C (dose: 100.0 mg/kg/injection, schedule: Q01DX009 (ip), vehicle: Klucel (hydroxypropylcellulose) (HPC)): 96 % of control
T/C (dose: 200.0 mg/kg/injection, schedule: Q01DX009 (ip), vehicle: Klucel (hydroxypropylcellulose) (HPC)): 103 % of control
T/C (dose: 400.0 mg/kg/injection, schedule: Q01DX009 (ip), vehicle: Klucel (hydroxypropylcellulose) (HPC)): 102 % of control

Cc1c(C(=O)O)[nH]c(=O)[nH]c1=O
T/C (dose: 100.0 mg/kg/injection, schedule: Q01DX Z (ip), vehicle: methylcellulose (MC)): 90 % of control
T/C (dose: 200.0 mg/kg/injection, schedule: Q01DX Z (ip), vehicle: methylcellulose (MC)): 97 % of control

CC(/C=C/c1ccccc1)=N\NC(=O)NN
T/C (dose: 100.0 mg/kg/injection, schedule: Q01DX001 (ip), vehicle: saline): 91 % of control
T/C (dose: 200.0 mg/kg/injection, schedule: Q01DX001 (ip), vehicle: saline): 89 % of control
T/C (dose: 400.0 mg/kg/injection, schedule: Q01DX001 (ip), vehicle: saline): 89 % of control

O=NN(CCCl)C(=O)NC(=O)NCCCl
T/C (dose: 1.0 mg/kg/injection, schedule: Q01DX001 (ip), vehicle: carboxymethylcellulose (CMC)): 112 % of control
T/C (dose: 2.0 mg/kg/injection, schedule: Q01DX001 (ip), vehicle: carboxymethylcellulose (CMC)): 118 % of control
T/C (dose: 4.0 mg/kg/injection, schedule: Q01DX001 (ip), vehicle: carboxymethylcellulose (CMC)): 122 % of control
T/C (dose: 18.0 mg/kg/injection, schedule: Q01DX001 (ip), vehicle: carboxymethylcellulose (CMC)): 119 % of control

O=CN/N=C/c1ccc(Cl)c([N+](=O)[O-])c1
T/C (dose: 75.0 mg/kg/injection, schedule: Q01DX001 (ip), vehicle: acetone): 93 % of control
T/C (dose: 150.0 mg/kg/injection, schedule: Q01DX001 (ip), vehicle: acetone): 92 % of control
T/C (dose: 300.0 mg/kg/injection, schedule: Q01DX001 (ip), vehicle: acetone): 92 % of control

CCC(C)C(C=NCC(CCN(C)C)(c1ccc2ccccc2c1)C(C)CC)(CCN(C)C)c1ccc2ccccc2c1 (stereo not drawn)
T/C (dose: 12.5 mg/kg/injection, schedule: Q04DX002 (ip), vehicle: saline + alcohol): 92 % of control
T/C (dose: 12.5 mg/kg/injection, schedule: Q04DX002 (ip), vehicle: saline with Tween-80): 92 % of control
T/C (dose: 25.0 mg/kg/injection, schedule: Q04DX002 (ip), vehicle: saline + alcohol): 92 % of control

O=C1CCc2ccsc21
T/C (dose: 100.0 mg/kg/injection, schedule: Q04DX002 (ip), vehicle: saline with Tween-80): 97 % of control
T/C (dose: 200.0 mg/kg/injection, schedule: Q04DX002 (ip), vehicle: saline with Tween-80): 97 % of control

O=C1c2ccccc2CC1(Br)Br
T/C (dose: 100.0 mg/kg/injection, schedule: Q04DX003 (ip), vehicle: other): 96 % of control
T/C (dose: 200.0 mg/kg/injection, schedule: Q04DX003 (ip), vehicle: other): 93 % of control
